Results on 18 compounds are retold here after PubChem BioAssay (NCI).

“And” between values parts separate entries of the source, which are not always exact repeats. Identical values can stand only once.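 All cell lines were grown in 96-well plates and treated with compound for 48 hours. The concentration for 50% growth inhibition is given as GI50. TGI marks complete inhibition of growth.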

Test in all cases: DTP human tumour cell line panel, 48 h
In assay [1] the test system is SN12C renal.
Assay [2] relates to MDA-MB-435.
The subject of assay [3] is MALME-3M melanoma.
The test system of assay [4] is OVCAR-3 ovarian.
In assay [5] the test system is SF-295 CNS.
Assay [6] relates to UACC-257 melanoma.
The test system of assay [7] is IGROV1 ovarian.
Assay [8] concerns LOX IMVI melanoma.
Assay [9] relates to A549 NSCLC.
For assay [10], the system named is SF-268 CNS.

By GI50 is commonly meant the concentration that inhibits growth by half. The term TGI denotes the concentration at which net growth stops. Read a high TGI as lower sensitivity of the cells. As for `C=C1C(=O)O[C@H]2[C@H]1CC/C(CNC(=O)/C=C/c1ccc(Cl)cc1Cl)=C\CC[C@@]1(C)O[C@@H]21`, the GI50 in assay [1] is 1.73 µM; in assay [2] it was 0.444 µM; in assay [3] it was 1.29 µM; in assay [4], 0.434 µM; in assay [5] it was 1.62 µM; in assay [6] it was 1.21 µM. Also, the GI50 is 1.63 µM in assay [7], 0.516 µM in assay [8], 2.12 µM in assay [9] and 1.09 µM in assay [10]. Also, the TGI in [1] is 4.08 µM; in [2] it was 1.74 µM; in assay [3], 2.7 µM; in [4], 1.57 µM; in assay [5], 3.83 µM; in assay [6] it was 2.58 µM. Besides, the TGI in [7] was found to be 3.41 µM; in assay [8], 1.81 µM; in [9] it was 5.46 µM; in assay [10], 2.67 µM.
Consider `Oc1ccc(O)c2c1C1(Cl)C(Cl)=C(Cl)C2(Cl)C1(Cl)Cl`, for which the GI50 in [1] was 5.29 µM; in assay [2], 1.7 µM; in assay [3], 2.31 µM; in [4], 2.03 µM; in assay [5], 1.67 µM; in assay [6], 3.97 µM. In addition, the GI50 in assay [7] is 5.73 µM; in [8] it was 3.18 µM; in assay [9], 5.89 µM; in assay [10], 3.31 µM. For the same compound, the TGI amounted to 22.7 µM in [1]; 4.86 µM in assay [2]; 9.95 µM in assay [3]; 5.17 µM in assay [4]; 7.2 µM in [5]; 17.4 µM in assay [6]. Further, the TGI in [7] stood at 20.2 µM; in assay [8] it was 13.4 µM; in assay [9] it was 37.4 µM; in assay [10] it was 15.5 µM.
Consider `Cc1cc(Cl)ccc1Nc1nc(C(F)(F)F)ccc1C(=O)Nc1cccc(C(F)(F)F)c1`, for which the GI50 is 3.23 µM in assay [1]; 3.76 µM in assay [2]; 1.97 µM in [3]; 3.52 µM in assay [4]; 3.24 µM in assay [5]; 3.2 µM in [6]. Moreover, the GI50 was 3.88 µM in assay [7], 2.79 µM in assay [8], 3.4 µM in assay [9] and 4.22 µM in [10]. The TGI in [1] was 11.6 µM; in [2] it was 16.1 µM; in assay [3], 9.17 µM; in assay [4], 19.1 µM; in assay [5], 13.3 µM; in assay [6] it was 11.6 µM. Also, the TGI in assay [7] stood at 22.7 µM; in assay [8], 8.55 µM; in [9] it was 18 µM; in assay [10], 16.6 µM.
Take `NCCSC(C[N+](=O)[O-])c1ccccc1Cl` (centres undefined): the GI50 in assay [1] is 7.33 µM; in [2] it was 1.87 µM; in assay [3], 16.3 µM; in assay [4], 1.88 µM; in assay [5], 1.5 µM; in assay [6], 1.91 µM. Further, the GI50 is 2.89 µM in [7], 1.69 µM in [8], 4.87 µM in assay [9] and 2.79 µM in assay [10]. The TGI was 21.9 µM in assay [1]; 5.42 µM in assay [2]; 36.7 µM in assay [3]; 3.5 µM in assay [4]; 3.83 µM in assay [5]; 4.31 µM in assay [6]. The concentration for total growth inhibition (TGI) in [7] was 9.67 µM; in assay [8], 3.56 µM; in [9], 15.5 µM; in [10] it was 8.53 µM.
As for `Cc1ccccc1NC(=O)c1cc2ccccc2cc1O`, the GI50 was 2.62 µM in [1]; 3.04 µM in [2]; 1.98 µM in assay [3]; 2.56 µM in assay [4]; 3.03 µM in assay [5]; 3.52 µM in assay [6]. The GI50 in [7] is 2.65 µM; in assay [8] it was 3.26 µM; in assay [9] it was 3.48 µM; in [10], 3.68 µM. Further, the concentration for total growth inhibition (TGI) is 9.18 µM in assay [1]; above 100 µM in assay [2]; 7.29 µM in assay [3]; 7.77 µM in assay [4]; 24.2 µM in assay [5]; 16.2 µM in [6]. In addition, the TGI in [7] was 30.3 µM; in assay [8], above 100 µM; in assay [9], above 100 µM; in assay [10], above 100 µM.
In the case of `O=C1C=C(OCCCl)C(=O)c2c(O)ccc(O)c21`, the GI50 in assay [1] is 1.58 µM; in assay [2], 0.157 µM; in [3] it was 0.215 µM; in assay [4] it was 0.286 µM; in assay [5], 2.44 µM; in assay [6], 0.762 µM. Moreover, the GI50 in [8] was 0.465 µM; in assay [9], 1.63 µM; in assay [10], 3.98 µM. In addition, the TGI is 0.526 µM and 3.03 µM in assay [1]; 0.389 µM and 0.294 µM in [2]; 0.34 µM and 0.911 µM in [3]; 2.33 µM and 1.08 µM in assay [4]; 3 µM and 4.53 µM in [5]; 0.358 µM and 2.44 µM in assay [6]. Besides, the TGI is 3.43 µM and 3.66 µM in assay [7]; 0.392 µM and 1.83 µM in [8]; 0.686 µM and 3.41 µM in [9]; 2.6 µM and 15.3 µM in [10].
In the case of `CN(C)N=Nc1nn(C(=O)Nc2ccc(Cc3ccccc3)cc2)c2ccccc12`, the GI50 in [1] is above 100 µM; in [3], 6.6 µM; in assay [4] it was 11.8 µM; in assay [5], 0.225 µM; in [6], 0.862 µM; in assay [7], 43.5 µM. Also, the GI50 in [8] is 0.0625 µM; in assay [9], 3.9 µM; in assay [10], 17.1 µM. In addition, the TGI in assay [1] was above 100 µM; in assay [2], above 100 µM; in [3], above 100 µM; in assay [4], above 100 µM; in assay [5], 3.12 µM; in [6], above 100 µM. The TGI is above 100 µM in assay [7], above 73.3 µM in assay [8], above 100 µM in assay [9] and above 100 µM in [10].
With `O=CN1N=C(c2ccc(Nc3ccnc4cc(Cl)ccc34)cc2)CC1c1ccc(Cl)cc1` (centres undefined), the GI50 was 0.978 µM in assay [1]; 0.198 µM in [2]; 0.352 µM in assay [4]; 0.274 µM in assay [5]; above 100 µM in [6]; 5.01 µM in [7]. Further, the GI50 in [8] was 0.599 µM; in [9], 0.992 µM; in [10], 0.847 µM. Further, the total growth inhibition concentration (TGI) in [1] is above 100 µM; in assay [2], 0.48 µM; in assay [4] it was above 100 µM; in [5], 1.08 µM; in assay [6], above 100 µM; in assay [7], above 100 µM. Moreover, the TGI in [8], in assay [9] and in assay [10] was above 100 µM throughout.
Regarding `COc1ccc(OC)c(/C=N/N=C2\C(=O)Nc3c(Cl)cc(Cl)cc32)c1`, the TGI in assay [1], in [2], in assay [3], in [4], in assay [5] and in [6] was above 100 µM in each case. Moreover, the TGI in [7], in assay [8] and in assay [9] was above 100 µM each time.
On to `COC1OC(C(C)O)C2OC(C)(C)OC12` (centres undefined), for which the TGI in assay [1], in [2], in assay [4], in assay [5], in [6] and in assay [7] was above 100 µM throughout. The TGI in assay [8], in [9] and in [10] was above 100 µM in each case.
In the case of `CC(=O)n1c(-c2ccc(Cl)c(Cl)c2)cn(-c2ccc(Cl)cc2)c1=O`, the GI50 in [1] is 31.8 µM; in assay [2] it was 84.1 µM; in [3], 32 µM; in [4] it was 51.2 µM; in assay [5], 11.9 µM; in [6], 22.4 µM. Also, the GI50 in [8] is 83.6 µM; in assay [9], 39.3 µM; in assay [10] it was 23.5 µM. The TGI in [1] is above 100 µM; in assay [2], above 100 µM; in assay [3], above 100 µM; in [4], above 100 µM; in assay [5] it was 28.8 µM; in [6], 66.8 µM. In addition, the concentration for total growth inhibition (TGI) in assay [8], in assay [9] and in assay [10] was above 100 µM throughout.
Consider `COc1ccc2c(c1OC)C(=O)O[C@@H]2[C@H]1c2c(c(Br)c3c(c2OC)OCO3)CCN1C`, for which the GI50 was above 100 µM in assay [1]; 3.55 µM in [2]; 10.6 µM in assay [4]; 10.8 µM in assay [5]; 7.76 µM in [6]; 7.77 µM in assay [7]. Besides, the values for the GI50 in assay [8], in assay [9] and in [10] were 6 µM, 8.57 µM and 18 µM, respectively. For the same compound, the TGI in assay [1] was above 100 µM; in assay [2] it was 29.6 µM; in [4], 40.8 µM; in assay [5], 47.4 µM; in assay [6] it was above 100 µM; in assay [7] it was above 100 µM. Moreover, the TGI in assay [8], in [9] and in [10] was above 100 µM throughout.
For `O=c1[nH]nc(-c2ccccc2)c2c(-c3ccccc3)onc12`, the GI50 was 0.748 µM in assay [1]; 0.751 µM in assay [3]; 0.358 µM in [4]; 0.72 µM in [5]; 6.7 µM in [6]; 0.615 µM in assay [7]. The GI50 is 0.877 µM in assay [8], 0.529 µM in [9] and 0.969 µM in assay [10]. For the same compound, the TGI in assay [1] is above 100 µM; in assay [3] it was above 90 µM; in assay [4] it was 1.44 µM; in assay [5] it was above 100 µM; in assay [6], above 100 µM; in [7] it was above 100 µM. The results for the TGI in assay [8], in assay [9] and in [10] were above 100 µM, above 100 µM and above 77.8 µM, respectively.
As for `NC(=O)N/N=C(\CCC(=O)N(Cc1ccccc1)Cc1ccccc1)CC(=O)c1ccc(F)cc1`, the TGI in [1], in [3], in [4], in assay [5], in assay [6] and in assay [7] was above 100 µM throughout. For the same compound, the TGI in [8], in assay [9] and in assay [10] was above 100 µM each time.
`COc1ccc(C=C2C(=O)NC(=O)NC2=O)cc1OCc1ccccc1`: the GI50 in [1] is 47.6 µg/mL; in assay [2], 20.2 µg/mL; in assay [3] it was 54.5 µg/mL; in assay [4], 17 µg/mL; in [5], 32.5 µg/mL; in assay [7], 27.1 µg/mL. In addition, the GI50 is 52.5 µg/mL in assay [8] and 29.2 µg/mL in [10]. Also, the TGI in assay [2] worked out at 56.1 µg/mL; in assay [4] it was 39.3 µg/mL.
For `N#CC(C(=O)CCC(=O)Nc1ccc(Cl)c(Cl)c1)c1ccc(Cl)cc1` (centres undefined), the TGI in assay [1], in assay [3], in assay [4], in assay [5], in assay [6] and in assay [7] was above 100 µM throughout. Moreover, the TGI in assay [8], in [9] and in assay [10] was above 100 µM throughout.
Turning to `CCOC(=O)c1cn(CC)c2cc3c(cc2c1=O)SCS3`, the concentration for total growth inhibition (TGI) in [1], in assay [3], in assay [4], in assay [5], in assay [6] and in assay [7] was above 100 µM in each case. The TGI in assay [8], in assay [9] and in [10] was above 100 µM each time.
In the case of `CC(=O)O[C@H]1CC[C@@]2(C)C(=C/C(=N\[N+](=O)[O-])[C@H]3C4CCC([C@H](C)CCCC(C)C)[C@@]4(C)CCC32)C1` (some centres undefined), the TGI in assay [1], in assay [3], in assay [4], in [5], in assay [6] and in assay [7] was above 100 µM each time. For the same compound, the TGI in assay [8], in assay [9] and in assay [10] was above 100 µM each time.
